# Source: US4649143A, “Methods and compositions for treating protozoal infections with a novel antibiotic” (priority 1984, dated 1987)
# Tests used:
# Eimeria acervulina = test: Anticoccidial evaluation in infected chicks, intestinal lesions; assay type: in vivo, Eimeria acervulina; chicks; details: 0.5 ppm to 5.0 ppm in diet
# Description: (§1) The poultry diet employed in the test is as follows: The vitamin-amino acid premix in the above feed composition is prepared from the following formulation. The expressions of quantity relate to units per kilogram of the finished feed composition. A mixed inoculum of 5000 sporulated oocysts of Eimeria acervulina and a sufficient number of oocysts of Eimeria tenella to produce 60% to 75% mortality in untreated controls were given to one-day-old chicks, by direct inoculation into the crops of all chicks. The chicks were given free access to feed and water during the entire test period. Two days before inoculation, medicated feed with several levels of drug was presented to the various groups of chicks. Seven days after inoculation, the tests were terminated and the chicks were weighed, necropsied, and their intestinal tracts examined for lesions.
# Eimeria tenella = test: as above; assay type: in vivo, Eimeria tenella; chicks; details: for Percent Chicks with Reduced Lesions E. tenella: 7 days after inoculation
# Description: as §1
# Solubility in water = assay type: physicochemical; details: compound and its acceptable salts
# yeasts = test: In vitro antimicrobial spectrum, summary; assay type: cell-based
# Description: (§2) The in vitro antimicrobial spectrum of LL-D42067β was determined by the agar plate dilution method with Mueller-Hinton agar and an inoculum of each test organism of approximately 10^4 colony forming units delivered by the Steers replicating device. The minimal inhibitory concentration (MIC) in mcg/ml was defined as the lowest concentration of LL-D42067β that inhibited visible growth after 18 hours incubation at 35° C.
# gram-positive bacteria = test: In vitro antimicrobial spectrum, summary; assay type: cell-based
# Description: as §2
# Micrococcus luteus = test: In vitro antimicrobial spectrum, agar plate dilution MIC; assay type: cell-based; details: PC 1001, Mueller-Hinton agar, 18 hours, 35° C.
# Description: as §2
# Bacillus subtilis = test: as above; assay type: cell-based; details: ATCC6633, ATCC 6633, Mueller-Hinton agar, 18 hours, 35° C.
# Description: as §2
# Bacillus cereus = test: as above; assay type: cell-based; details: LL No. 4, Mueller-Hinton agar, 18 hours, 35° C.
# Description: as §2
# Streptococcus faecalis = test: as above; assay type: cell-based; details: Enterococcus faecalis, ATCC29212; ATCC 29212; Mueller-Hinton agar, 18 hours, 35° C.
# Description: as §2
# Streptococcus sanguis = test: as above; assay type: cell-based; details: G9B (a), Mueller-Hinton agar, 18 hours, 35° C.
# Description: as §2
# [1] = system: Staphylococcus epidermidis; test: as above; assay type: cell-based; details: CMC 83-56, Mueller-Hinton agar, 18 hours, 35° C.
# Description: as §2
# Staphylococcus aureus = test: as above; assay type: cell-based; details: 18 h, 35° C.
# Description: as §2
# Enterococcus = test: as above; assay type: cell-based; details: 18 h, 35° C.
# Description: as §2
# [2] = system: Eimeria acervulina and Eimeria tenella (mixed inoculum); test: Anticoccidial evaluation in infected chicks, survival; assay type: in vivo, Eimeria tenella; chicks; details: for Percent Survival: chicks, 7 days after inoculation
# Description: as §1
structure (smiles),measurement,setting,value
COc1c2c(c(O)c3c(=O)c4c(oc13)[C@@H](O)CC[C@@H]4O)-c1c3c(c4cc(C)[nH]c(=O)c4c1O)OCO[C@H]3C2 (relative stereo) [LL-D42067β],suppression of lesions due to E. acervulina,Eimeria acervulina,significant suppression of lesions
same,suppression of lesions due to E. tenella,Eimeria tenella; 0.5 ppm to 5.0 ppm in diet,significant suppression of lesions
same,Percent Chicks with Reduced Lesions E. tenella,Eimeria tenella; 0.5 ppm in diet,0%
same,Percent Chicks with Reduced Lesions E. tenella,Eimeria tenella; 0.75 ppm in diet,40%
same,Percent Chicks with Reduced Lesions E. tenella,Eimeria tenella; 1.00 ppm in diet,80%
same,Percent Chicks with Reduced Lesions E. tenella,Eimeria tenella; 2.5 ppm in diet,100%
same,Percent Chicks with Reduced Lesions E. tenella,Eimeria tenella; 5.0 ppm in diet,100%
same,solubility in water,Solubility in water,relatively insoluble in water
same,activity against yeasts,yeasts,moderately active
same,activity versus gram-positive bacteria,gram-positive bacteria,active
same,MIC,Micrococcus luteus,≤ 0.06 µg/mL
same,MIC,Bacillus subtilis,4 µg/mL
same,MIC,Bacillus cereus,≤ 0.06 µg/mL
same,MIC,Streptococcus faecalis,1 µg/mL
same,MIC,Streptococcus sanguis,0.5 µg/mL
same,MIC,[1],0.5 µg/mL
same,MIC,"Staphylococcus aureus; LL No. 14, Mueller-Hinton agar",0.5 µg/mL
same,MIC,"Staphylococcus aureus; LL No. 27, Mueller-Hinton agar",≤ 0.06 µg/mL
same,MIC,"Staphylococcus aureus; Smith, Mueller-Hinton agar",0.5 µg/mL
same,MIC,"Enterococcus; OSU 75-1, Mueller-Hinton agar",1 µg/mL
same,MIC,"Enterococcus; SM 77-15, Mueller-Hinton agar",2 µg/mL
same,survival of infected chicks,[2]; 0.5 ppm to 5.0 ppm in diet,improved survival
same,Percent Survival,[2]; 0.5 ppm in diet,40%
same,Percent Survival,[2]; 0.75 ppm in diet,60%
same,Percent Survival,[2]; 1.00 ppm in diet,80%
same,Percent Survival,[2]; 2.5 ppm in diet,100%
same,Percent Survival,[2]; 5.0 ppm in diet,80%
